This is an account of results in patent publication US20240239786A1, “COMPOSITIONS AND METHODS FOR THE TREATMENT AND PREVENTION OF CANCER” (Yale University, priority 2021, published 2024).

One test concerns PD-L1. Put plainly: PD-L1 level in BRCA-wild type PEO4 cells. Type of test: cell-based. An excerpt:
FIG. 21A depicts representative effects of DB4 and/or olaparib on BRCA-wild type PEO4 cells after 24, 48, and 72 hr. FIG. 21B depicts representative effects of DB4 and/or olaparib on the level of DSBs in BRCA-wild type PEO4 cells. FIG. 21C depicts representative effects of DB4 and/or olaparib on the level of PD-L1 protein in BRCA-wild type PEO4 cells.
FIG. 22 depicts representative effects of DB4 and/or olaparib on PD-L1-positive populations of BRCA-mutated PEO1 and BRCA-wild type PEO4 cells. DB4 and/or olaparib increased the PD-L1-positive population of BRCA-wild type PEO4 cells in the presence of IFNγ.

Test [1] deals with T1, ribonucleotide reductase (RNR) (Homo sapiens, UniProt P31350).
T1 sequence (P31350 1-389): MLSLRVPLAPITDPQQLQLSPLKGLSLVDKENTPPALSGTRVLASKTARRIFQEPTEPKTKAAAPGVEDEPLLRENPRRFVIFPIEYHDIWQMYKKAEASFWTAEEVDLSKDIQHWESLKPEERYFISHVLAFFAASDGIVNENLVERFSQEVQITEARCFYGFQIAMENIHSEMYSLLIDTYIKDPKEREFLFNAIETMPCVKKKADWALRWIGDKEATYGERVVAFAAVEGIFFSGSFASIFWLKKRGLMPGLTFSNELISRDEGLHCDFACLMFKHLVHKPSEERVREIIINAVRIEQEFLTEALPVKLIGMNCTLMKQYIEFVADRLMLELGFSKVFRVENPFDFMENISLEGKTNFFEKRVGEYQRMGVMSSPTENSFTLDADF
The note with it: fold more potent than hydroxyurea; cited from earlier work.

Turning to `C=CCn1c(SCc2cccc(Cl)c2)nnc1C1CCN(Cc2nc3ccccc3s2)CC1` [DB4, 2-[(4-{4-allyl-5-[(3-chlorobenzyl)thio]-4H-1,2,4-triazol-3-yl}-1-piperidinyl)methyl]-1,3-benzothiazole], the PD-L1 protein level result with PD-L1 (BRCA-wild type EOC cells) is listed as “up-regulation of PD-L1 protein”. The PD-L1-positive population entry in the test on PD-L1 (PEO4 cells in the presence of IFNγ) is reported as “significantly increased”.

Take `NC(=S)NN=Cc1ncccc1N` [triapine, 3-aminopyridine-2-carboxaldehyde-thiosemicarbazone, reference compound]: the “potency relative to the RNR inhibitor hydroxyurea” value in test [1] is 1,000 times.
